Earlier results, collected in patent US20230189810A1, “AQUEOUS COMPOSITION OF DITHI[…]” (priority 2020, published 2023).

Settings: water, 20° C.

## mancozeb
  solubility: about 6.2 mg per liter
